Assay results published in patent publication US20260001884A1, “Heterocycle compounds for the treatment of cancer” (Hoffmann-La Roche Inc., priority 2022, published 2026).

Assays:
CD73 (MDA-MB-231 cells) = CD73 (MDA-MB-231 cells) (Homo sapiens (Human), UniProt P21589); assay: CD73 Cellular Assay; format: cell-based; conditions: 10 μM AMP working solution, 45 min at 37° C., Malachite Green readout, read-out: Cellular IC50 against CD73
Description: Compound serial dilution (1:3) was prepared with Echo 555 liquid handler (Labcyte) into the corresponding wells of a 384-well plate. 40 μL of MDA-MB-231 cells (ATCC, HTB-26, breast cancer, final concentration at 20,000 cells/mL) suspended in assay buffer (25 mM Tris-HCl pH 7.5, 5 mM MgCl2, 0.01% BSA, 0.01% Brij-35) were added into the corresponding wells of the plate. After incubating with compounds for 30 minutes, 40 μL of AMP working solution (10 μM AMP, 25 mM Tris-HCl pH 7.5, 5 mM MgCl2, 0.01% BSA, 0.01% Brij-35) was added into each well in the assay plate. The assay plate was then incubated in a 5% CO2 incubator (Thermo Fisher Scientific) at 37° C. for 45 min. After the reaction was completed, 50 μL of the supernatants was collected and transferred into a new 384 well plate. 10 μL of Malachite A was added to each well in the assay plate and incubated for 10 minutes. 10u L of Malachite B was then added to each corresponding well of the plate and incubated for 30 minutes. Finally the absorbance value was read on the Envision plate reader at […]. Calculation percentage inhibition by using equation {% inhibition=100×[I−(X−MIN)/(MAX−MIN)]} where X equals to the well signal, Max equals signal of DMSO control and MIN equals signal of no cell control.

recombinant CD73 protein = recombinant CD73 protein (Homo sapiens (Human), UniProt P21589); assay: CD73 Biochemical Assay; conditions: 0.2 nM recombinant CD73, 10 μM AMP working solution, Malachite Green readout; read-out: Enzymatic IC50 against CD73
Description: Compound serial dilution (1:3) was prepared with Echo 555 liquid handler (Labcyte) into the corresponding wells of a 384-well plate. 25 μL of enzyme working solution [0.2 nM recombinant CD73 protein (purchased from R&D Systems, Inc), 25 mM Tris-HCl pH 7.5, 5 mM MgCl2, 0.01% BSA, 0.01% Brij-35 non-ionic detergent] was added to the assay plate and incubated with compounds for 15 minutes at room temperature. After adding 25 μL of AMP working solution (10 μM AMP, 25 mM Tris-HCl pH 7.5, 5 mM MgCl2, 0.01% BSA, 0.01% Brij-35) into the assay plate, the reaction was incubated for 10 min at room temperature. 10 uL of Malachite Green A solution was then added to each well for 10 minutes incubation. 10 uL of Malachite B solution was added to each well and then incubated for another 30 minutes. Finally the absorbance value was read on the Envision plate reader (PerkinElmer) at […]. Calculation percentage inhibition by using equation {% inhibition=100×[I−(X−MIN)/(MAX−MIN)]} where X equals to the well signal, Max equals signal of DMSO control and MIN equals signal of no cell control.

recombinant CD73 protein, sequence (P21589 27-574, species assumed): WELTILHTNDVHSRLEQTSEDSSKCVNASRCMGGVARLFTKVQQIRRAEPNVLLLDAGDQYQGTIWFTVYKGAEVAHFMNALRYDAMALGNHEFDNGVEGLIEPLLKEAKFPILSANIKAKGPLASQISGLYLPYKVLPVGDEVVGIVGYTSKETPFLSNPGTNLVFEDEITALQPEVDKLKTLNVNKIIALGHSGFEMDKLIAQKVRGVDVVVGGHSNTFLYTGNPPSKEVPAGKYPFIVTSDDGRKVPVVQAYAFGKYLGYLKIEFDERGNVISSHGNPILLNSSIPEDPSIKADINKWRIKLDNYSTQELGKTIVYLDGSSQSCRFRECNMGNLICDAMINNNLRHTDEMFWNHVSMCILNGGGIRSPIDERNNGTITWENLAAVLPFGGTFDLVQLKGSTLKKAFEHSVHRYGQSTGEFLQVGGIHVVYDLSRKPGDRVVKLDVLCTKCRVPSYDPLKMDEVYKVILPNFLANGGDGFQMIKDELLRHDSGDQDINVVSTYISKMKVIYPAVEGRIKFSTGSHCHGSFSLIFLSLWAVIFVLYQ
CD73 (MDA-MB-231 cells), sequence (P21589 27-574): as the sequence (P21589 27-574, species assumed) above

Row | SMILES | IC50 (CD73 (MDA-MB-231 cells)) | IC50 (recombinant CD73 protein)
1 | Cn1c(=O)n(C)c2nnc(-c3c[nH]c(=O)[nH]c3=O)cc21 [Example 2, 5-(5,7-dimethyl-6-oxo-imidazo[4,5-c]pyridazin-3-yl)-1H-pyrimidine-2,4-dione] | 156 nM | 254 nM
2 | CC(C)n1c(=O)n(C)c2nnc(-c3c[nH]c(=O)[nH]c3=O)cc21 [Example 3, 5-(5-isopropyl-7-methyl-6-oxo-imidazo[4.5-]pyridazin-3-yl)-1H-pyrimidine-2,4-dione] | 27 nM | 267 nM
3 | Cn1c(=O)n(Cc2ccccc2)c2cc(-c3c[nH]c(=O)[nH]c3=O)nnc21 [Example 4, 5-(5-benzyl-7-methyl-6-oxo-imidazo[4,5-c]pyridazin-3-yl)-1H-pyrimidine-2,4-dione] | 107 nM | 
4 | Cn1c(=O)[nH]c2nnc(-c3c[nH]c(=O)[nH]c3=O)cc21 [Example 1, 5-(5-methyl-6-oxo-7H-imidazo[4,5-c]pyridazin-3-yl)-1H-pyrimidine-2,4-dione] | 74 nM | 622 nM
